The values below come from ChEMBL document CHEMBL2062434, “Isolation and structural elucidation of cyclic tetrapeptides from Onychocola sclerotica” (J Nat Prod, 2012).

Where a SMILES comes first, the peptide text is derived from it. [ ]: non-standard residue; d: D form. NMeF = CN[C@@H](Cc1ccccc1)C(=O)O

Assay [1] in a line: Inhibition of human voltage-dependent L-type calcium channel subunit alpha1C/alpha2delta/beta2a expressed in C1-6-37-3 cells assessed as inhibition of K+-induced calcium influx incubated for 30 mins prior to K+-induction by Fluo-4-AM based FLIPR assay. It is filed as cell-based.
Assay [2] can be described thus: Cytotoxicity against human Fa2N-4 cells after 24 hrs by MTT assay. The class given is cell-based. To be noted: Fa2N-4, 24 h. In general terms: Tetrazolium dyes change colour on reduction, which living cells bring about.

One may read the IC50 as the concentration that gives 50% inhibition.

Take `COc1ccc(CCN(C)CCCC(C#N)(c2ccc(OC)c(OC)c2)C(C)C)cc1OC` (centres undefined): the IC50 in assay [1] was 0.9 µM.

Turning to `CC[C@H](C)[C@@H]1NC(=O)[C@H](Cc2ccccc2)N(C)C(=O)[C@H]([C@@H](C)CC)NC(=O)[C@H](Cc2ccccc2)N(C)C1=O` (cyclo(I[NMeF]I[NMeF])), the half-maximal inhibitory concentration (IC50) in assay [1] is 5 µM; in assay [2], over 20 µM.

As to `CC[C@H](C)[C@@H]1NC(=O)[C@H](Cc2ccccc2)N(C)C(=O)[C@H](C(C)C)NC(=O)[C@H](Cc2ccccc2)N(C)C1=O` (cyclo(I[NMeF]V[NMeF])), the IC50 in assay [1] was 7.1 µM; in assay [2], over 20 µM.

As to `CC(C)[C@@H]1NC(=O)[C@H](Cc2ccccc2)N(C)C(=O)[C@H](C(C)C)NC(=O)[C@H](Cc2ccccc2)N(C)C1=O` (cyclo([NMeF]V[NMeF]V)), the figures for the IC50 in assay [1] and in assay [2] were 6.2 µM and over 20 µM, respectively.

Consider `COc1ccc([C@@H]2Sc3ccccc3N(CCN(C)C)C(=O)[C@@H]2OC(C)=O)cc1` [DILTIAZEM], for which the IC50 in assay [1] was 2.2 µM.

For `CCOC(=O)C1=C(C)NC(C)=C(C(=O)OC)C1c1cccc([N+](=O)[O-])c1` (centres undefined) [NITRENDIPINE], the IC50 in assay [1] is 0.003 µM.
